Values of other authors in patent US7291352B2 (HerbalScience LLC, priority 2001, dated 2007).

Tested on: gamma-aminobutyric acid (GABA) receptor uptake
Conditions: in micromolar concentrations

| Compound | inhibition of GABA receptor uptake |
| --- | --- |
| O=C(O)C1=CCCNC1 [guvacine] | inhibit |
| CN1CCC=C(C(=O)O)C1 [arecaidine] | inhibit |
